From ChEMBL document CHEMBL1157539, “Thousands of chemical starting points for antimalarial lead identification” (Nature, 2010)

Tested on: Plasmodium falciparum
Test: GSK_TCMDC: Inhibition of Plasmodium falciparum 3D7 in whole erythrocytes, using parasite LDH activity as an index of growth.
Type: functional, organism-based

| Compound | XC50 (Plasmodium falciparum, 3D7) [µM] | XC50 [µM] |
| --- | --- | --- |
| COc1cccc(CNC(=O)c2cc(CNCc3ccccc3)ccc2-c2cccc(CNCc3ccc(-c4ccccc4)cc3)c2)c1 | 0.847 |  |
| COc1cc(C(=O)Nc2cccc(-c3nc4ccccc4[nH]3)c2)ccc1OC(C)=O | 0.762 |  |
| N#Cc1ccc2c(c1)CN(C1CCC(NC(=O)c3cc(-c4ccc(Cl)cc4)cs3)CC1)CCC2 (stereo not given) | 0.956 |  |
| Oc1cccc(-c2nc(-c3cccc(I)c3)c(-c3ccc(-c4nc(-c5cccc(O)c5)[nH]c4-c4cccc(I)c4)cc3)[nH]2)c1 | 0.925 |  |
| COc1cccc(NC(=O)Nc2ccc(C)c(-c3ccc(C(=O)Nc4ccncc4)cc3)c2)c1 | 0.52 |  |
| Nc1nc(N)c2c(ccc3c2ccn3Cc2cccc(F)c2)n1 | 0.0032 |  |
| COc1ccc(CNCc2ccc(-c3ccc(-c4nc5cccc(C)c5[nH]4)s3)cc2)cc1 | 0.18 |  |
| O=C(Cc1cccc(Cl)c1)Nc1cccc(-c2c[nH]c3nc(Nc4cccc(O)c4)ncc23)c1 | 0.731 |  |
| CC(C)(C)NC(=O)C(c1ccc(F)cc1)N(C(=O)c1ccc(CN2CCOCC2)o1)c1ccc(C2CCCCC2)cc1 (stereo not given) | 0.925 |  |
| CCN(CCCN1CCCCC1)c1cc(C)nc(Nc2ccc(C)cc2Br)n1 | 0.172 |  |
| Cc1cc(NC(=O)c2cc(Br)ccc2Cl)n(-c2nc(C)c(C)c(=O)[nH]2)n1 | 1.13 |  |
| CCCc1cc(N2CCC(N3CCCC3)CC2)nc(Nc2ccc(Cl)cc2)n1 | 0.765 |  |
| O=c1cc(N2CCNCC2)c(Cl)nn1Cc1ccc(NS(=O)(=O)c2ccc(Oc3ccccc3)cc2)cc1 | 0.574 |  |
| CN1C2CCC1c1cc(NC(=O)c3cc(-c4ccc(Cl)cc4)cs3)ccc12 (stereo not given) | 1.3 |  |
| CC1(C)NC(N)=NC(=N)N1OCc1nc(N)nc(Nc2ccccc2)n1 | 0.274 |  |
| O[C@@H](c1cc(C(F)(F)F)nc2c(C(F)(F)F)cccc12)[C@H]1CCCCN1 | 0.0737 | 0.0692 |
| CCCCn1c(=N)c(C(=O)NCc2cccnc2)cc2c(=O)n3cccc(C)c3nc21 | 0.745 |  |
| CN(C)CCC1CCN(CCS(=O)(=O)c2cccc(Nc3ccc(-c4cccc(F)c4)cn3)c2)CC1 | 1.07 |  |
| O=C(Nc1ccc(-c2nc3ccccc3[nH]2)cc1)c1ccc(S(=O)(=O)N2CCCCC2)cc1 | 0.749 |  |
| Fc1ccc2[nH]c(-c3ccc(-c4ccc(CN5CCC(CCN6CCCCC6)CC5)cc4)s3)nc2c1 | 0.142 |  |
| COc1ccc(-c2ccc(NC(=O)c3ccc(Cl)cc3)cc2)cc1CN(C)CCN(C)C | 0.675 |  |
| O=c1cc(NCCCNCc2[nH]c3cc(Cl)ccc3c2Cl)[nH]c2ccccc12 | 0.91 |  |
| CN1CCCC(CN2CCN(Cc3cccc(-c4ccc(-c5nc6cc(C(F)(F)F)ccc6[nH]5)cc4)c3)CC2)C1 (stereo not given) | 0.145 |  |
| COc1ccc(-c2ccc(NC(=O)c3ccc(Cl)cc3)cc2)cc1CN1CCCN(C)CC1 | 0.648 |  |

| Compound | XC50 (Plasmodium falciparum, 3D7) [µM] | XC50 [µM] |
| --- | --- | --- |
| Cc1cccc(CNc2nc(C)cc(N[C@@H](Cc3ccccc3)C(=O)NCc3cccc(F)c3)n2)c1 | 1.04 |  |
| Cc1cc(N[C@@H](CC(C)C)C(=O)NCc2cccs2)nc(NCCc2cccs2)n1 | 1.02 |  |
| CN1CCCC1CCNc1ncc2c(-c3ccc(NC(=O)Nc4cc(C(F)(F)F)ccc4F)c(F)c3)nn(C)c2n1 (stereo not given) | 0.287 |  |
| CCOC(=O)c1cc(Cl)cc(Cl)c1OCCCON1C(=N)N=C(N)NC1(C)C | 0.0032 |  |
| CC1=C(C(=O)Nc2ccccc2)C(c2ccc([N+](=O)[O-])cc2)n2ncc(C(=O)Nc3ccccc3)c2N1 (stereo not given) | 1.24 |  |
| Cc1c(Br)cc2nc(-c3ccc(C(=O)NC4CCN(Cc5ccccc5)CC4)cc3)[nH]c2c1C | 0.333 |  |
| Cc1cc(O)nc(NC(=N)NOCc2ccccc2)n1 | 0.423 |  |
| NC(=O)c1cccc(Nc2nccc(Nc3ccc(Oc4cccc(Cl)c4)c(Cl)c3)n2)c1 | 1.28 |  |
| CCN(CC)CCN(Cc1ccc(-c2ccc(Cl)cc2)cc1)C(=O)Cn1cc(CN(C)C)c(=O)nc1SCc1ccc(F)cc1 | 0.748 |  |
| Cc1noc(-c2ccccc2)c1NC(=O)NC1CCN(CCCCCNC(=O)/C=C/c2ccc(Cl)c(Cl)c2)CC1 | 0.985 |  |
| O=C(Nc1ccc(-c2oc(C(=O)NCCc3cccc(Cl)c3)cc2-c2ccncc2)cc1)Nc1cccc(Cl)c1 | 0.722 |  |
| Nc1ccc2nc(C=Cc3ccc(Cl)cc3)[nH]c2c1 | 0.941 |  |
| Cc1cc(NCCC(=O)NCCOc2ccccc2)nc(NCc2ccccc2C)n1 | 0.867 |  |
| O=C(Nc1ccc(Cn2ncc(N3CCCNCC3)c(Cl)c2=O)cc1)Nc1ccc(OCc2ccccc2)cc1 | 0.822 |  |
| COc1ccc(OC)c(-c2ccc(=O)n(CC(=O)Nc3cccc4ccccc34)n2)c1 | 0.901 |  |
| COC(=O)c1cccc(CNCc2ccc(-c3ccc(-c4nc5ccccc5[nH]4)s3)cc2)c1 | 0.289 |  |
| OC(CNCc1ccccc1Oc1ccccc1)c1cccc(C(F)(F)F)c1 (stereo not given) | 0.713 |  |
| Cc1cc(NC(=O)NCCN2CCC(NC(=O)c3cccc(Br)c3)C2)c2ccccc2n1 (stereo not given) | 0.553 |  |
| COc1ccc(NC(=O)Nc2ccc(-c3ccccc3)cc2)cc1Cn1cnc(N2CCCNCC2)cc1=O | 0.759 |  |
| O=[N+]([O-])c1cccc(CNC2CCN(Cc3ccc(Cl)c(Cl)c3)CC2)c1 | 0.456 |  |
| Cc1ccccc1-c1nc2c(CN3CCC(O)(c4ccccc4)CC3)c(O)ccc2[nH]1 | 0.866 |  |
| O=S(=O)(NCCN1CCCC1)c1ccc(-c2ccc(CNCc3ccsc3)cc2)cc1F | 0.81 |  |
| NCC1CCCN1Cc1cccc(-c2ccc(-c3nc4cc(C(F)(F)F)ccc4[nH]3)s2)c1 (stereo not given) | 0.748 |  |
| Oc1cccc(C2CCCN(CCc3c[nH]c4ccccc34)C2)c1 (stereo not given) | 0.857 |  |

| Compound | XC50 (Plasmodium falciparum, 3D7) [µM] | XC50 [µM] |
| --- | --- | --- |
| CCOC(=O)NOC(C(=O)O)c1ccccc1 (stereo not given) | 0.189 |  |
| Clc1ccc2c(N3CCCNCC3)ccnc2c1 | 0.482 |  |
| COc1ccc2c(c1)[nH]c1c(C=Cc3ccccc3)nccc12 | 0.379 |  |
| O=C(NCCCN(Cc1ccc(F)cc1)c1ccccn1)C(c1cc2ccccc2o1)N1CCN(C(c2ccccc2)c2ccccc2)CC1 (stereo not given) | 0.838 |  |
| CC(C)NCc1ccc(-c2cccc(CN3CCC(c4ccccc4)CC3)c2)c(C(=O)NCC2CCCCC2)c1 | 0.847 |  |
| Nc1c2ccccc2nc2cc([N+](=O)[O-])ccc12 | 0.87 |  |
| CNC(=O)c1ccc2[nH]cc(C3CCN(CC4CCN(C(=O)/C=C/c5ccc(Cl)c(Cl)c5)CC4)CC3)c2c1 | 1.52 |  |
| O=C(Nc1ccc(CCNCc2ccccc2)cc1)Nc1ccc(OC(F)(F)F)cc1 | 0.584 |  |
| CCOc1cc(CC)ccc1C1CCN(CCN2CCC(CNC(=O)c3ccc(-c4ccc(C#N)cc4)cc3)CC2)CC1 | 0.708 |  |
| O=C(Nc1ccc2nc3n(c(=O)c2c1)CCCCC3)C(=O)N1CCC(Cc2ccccc2)CC1 | 0.757 |  |
| O=C(Nc1ccc(Cl)c(Cl)c1)C1CCC(=O)N1[C@@H](Cc1ccccc1)C(=O)NCCc1ccc(Cl)cc1 (stereo not given in full) | 1.1 |  |
| CCOC(=O)c1cc(C(=O)NCCCCN2CCC(c3cn(C)c4ccccc34)CC2)ccc1-c1ccc(C(F)(F)F)cc1 | 1.2 |  |
| COc1ccc(CNC(=N)Nc2nc(-c3ccc(OCCCn4ccnc4)cc3)cs2)cc1 | 0.393 |  |
| COc1ccc(N2CCN(CCCC/C=C/c3ccc(NC(=O)c4cc(Cl)cc(Cl)c4)cc3)CC2)c(OC)c1 | 0.66 |  |
| COc1cccc(NC(=O)N2CCOC(CCN3CCC4(CCc5ccccc54)CC3)(c3ccc(Cl)c(Cl)c3)C2)c1 (stereo not given) | 1.01 |  |
| Cn1nccc1C(=O)NCCNCc1cccc(-c2ccc(-c3nc4ccccc4[nH]3)s2)c1 | 0.303 |  |
| Cc1ccc(-c2nc3cc(C(=O)NC4CCC(N5CCCc6ccc(C#N)cc6C5)CC4)ccc3[nH]2)cc1 (stereo not given) | 1.36 |  |
| CCc1ccc(C2CCN(CCCCNC(=O)c3ccc(NC(=O)c4ccc(Cl)cc4)cc3)CC2)c(OC(C)=O)c1 | 0.145 |  |
| COc1ccc2nccc(N3CCC(CCNCc4ccc5c(n4)NC(=O)CO5)CC3)c2c1 | 0.705 |  |
| O=C(NC1CCN(c2ccnc(Nc3ccc(F)cc3)n2)C1)c1cc2ccccc2s1 (stereo not given) | 0.716 |  |
| COc1ccc(C(=O)C2CC2CN2CC=C(c3c[nH]c4cccc(Br)c34)CC2)cc1 (stereo not given) | 0.935 |  |
| O=C(CCc1cccc(O)c1)NCC(NCCCNc1cc(=O)c2ccccc2[nH]1)c1cc(Br)cc(Br)c1 (stereo not given) | 1.17 |  |
| CCC1=C[C@@H]2CN(C1)Cc1c([nH]c3ccccc13)[C@@](C(=O)OC)(c1cc3c(cc1OC)N(C)[C@H]1[C@@](O)(C(=O)OC)[C@H](O)[C@]4(CC)C=CCN5CC[C@]31[C@@H]54)C2 | 0.866 |  |
| c1cc(CN2CCCCC2)cc(-c2csc(-c3nc4ccccc4[nH]3)c2)c1 | 0.848 |  |

| Compound | XC50 (Plasmodium falciparum, 3D7) [µM] | XC50 [µM] |
| --- | --- | --- |
| Cc1cc(Cl)c(S(=O)(=O)NC2CCCC2)cc1OCC(=O)NC1CCCCC1 | 0.385 |  |
| CC(C)Cn1c(Sc2ccc(C#N)c([N+](=O)[O-])c2)nnc1-c1ccc(N(C)C)cc1 | 0.22 |  |
| CCc1ccc(-n2c(=O)c3cccnc3n2CC(=O)NC2CCCC2)cc1 | 0.917 |  |
| CC(Cc1ccc(C2=CCNCC2)cc1)NCC(O)c1cccc(C(F)(F)F)c1 (stereo not given) | 1.57 |  |
| COc1ccc(-c2cccc(NC(=O)c3ccc(Cl)cc3)c2)cc1CN(C)CCN(C)C | 0.776 |  |
| CC1CCCC(Nc2noc(-c3sccc3Br)n2)C1 (stereo not given) | 0.689 |  |
| OCc1ccc(-c2cncc(Nc3cccc(Cl)c3)c2)cc1 | 0.0743 |  |
| CC(Cc1ccc(COc2ccc(CC(CO)NCCc3cccc(Cl)c3)cc2)cc1)NCCc1cccc(Cl)c1 (stereo not given) | 0.821 |  |
| CCCc1cc(OC)c(C[C@@H]2c3cc(O)c(Cl)cc3CCN2C)cc1OC | 0.722 |  |
| CN(Cc1ccccc1)C(=O)CCNS(=O)(=O)c1cc(Br)cnc1N | 1.13 |  |
| COc1ccc2[nH]ccc(=NN=Cc3cccc(C)n3)c2c1 | 0.764 |  |
| COc1ccc2[nH]ccc(=NN=Cc3cccc(Cl)c3)c2c1 | 0.193 |  |
| COc1ccc2nccc([C@@H](O)CN3CCC(NCc4nc5cc(F)cc(F)c5[nH]4)CC3)c2c1 | 0.573 |  |
| COc1ccc(NC(=O)[C@H](CC(C)C)Nc2cc(C)nc(NCCc3ccc(F)cc3)n2)cc1 | 0.925 |  |
| CCn1c(-c2nonc2N)nc2c(-c3cccc(NC(=O)Nc4ccccc4Cl)c3)ncc(OCCCN)c21 | 0.671 |  |
| Cc1cccc2c1NC(=O)/C2=N/NC(=S)N(C)C | 0.755 |  |
| O=C(c1cc(-c2ccco2)n[nH]1)N1CCN(S(=O)(=O)c2ccc(Br)cc2)CC1 | 0.497 |  |
| N[C@@H](CCNCc1ccc(-c2cccnc2)cc1)Cc1ccc(F)c(F)c1 | 0.797 |  |
| CCN(CC)c1ccc2nc(N)nc(N)c2c1 | 0.0739 |  |
| COc1ccc(NC(=O)/C=C/c2ccccc2Cl)cc1OCCN1CCC(O)(c2ccc(Cl)c(C(F)(F)F)c2)CC1 | 0.637 |  |
| CC(C)C[C@@H](NC(=O)NC1CCC(CCN2C3CCC2CC(OC(=O)C(CO)c2ccccc2)C3)CC1)C(O)(c1ccccc1)c1ccccc1 (stereo not given in full) | 1.07 |  |
| O=S(=O)(NCCCN1CCOCC1)c1ccc2nccc(Nc3ccc(Oc4ccccc4)cc3)c2c1 | 0.855 |  |
